Source: patent US9949983B2, “Fused benzazepines for treatment of stuttering” (PSYADON PHARMACEUTICALS, INC., priority 2013, dated 2018)
Like-named read-outs stand apart in the source and are kept apart here.

Legend:
stuttering = details: cited from earlier work
[1] = cited from earlier work
D1/D5 receptors = details: rat brain homogenates, at low concentrations; cited from earlier work
D1 receptors = D1 receptors (Homo sapiens, UniProt P21728); assay: In vitro cAMP second messenger studies (adenylate cyclase); type: biochemical
Chain of D1 receptors (P21728 whole entry): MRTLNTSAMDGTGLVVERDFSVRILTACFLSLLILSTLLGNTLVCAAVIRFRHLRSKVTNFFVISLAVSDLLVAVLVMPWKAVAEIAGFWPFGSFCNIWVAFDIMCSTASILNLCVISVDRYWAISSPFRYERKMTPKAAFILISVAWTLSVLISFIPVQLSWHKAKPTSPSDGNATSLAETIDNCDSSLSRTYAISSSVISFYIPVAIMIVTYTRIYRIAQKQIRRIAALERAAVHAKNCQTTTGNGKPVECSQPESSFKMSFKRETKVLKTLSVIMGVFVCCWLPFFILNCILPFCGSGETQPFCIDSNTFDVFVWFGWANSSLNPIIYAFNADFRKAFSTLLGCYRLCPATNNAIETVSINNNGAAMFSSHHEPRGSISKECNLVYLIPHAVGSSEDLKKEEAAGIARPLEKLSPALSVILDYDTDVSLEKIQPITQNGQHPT
Protocol: (§1) Activation of D1 receptors by dopamine and similar agonists stimulates the production of cyclic AMP (cAMP) via activation of adenylate cyclase. […] To ensure that there was no species specificity to the receptor binding profile, ecopipam's potency and selectivity were evaluated using cloned human receptors. […] Positron emission tomography (PET) studies using radiolabeled ecopipam have been conducted in healthy volunteers (Karlsson et al., Psychopharmacol., 121:300-308, 1995).

[2] = Open-label clinical study of safety, tolerability and activity in adult patients with Tourette's Syndrome; type: in vivo, human; details: adult TS patients, 50 mg/day Weeks 1-2, 100 mg/day Weeks 3-8
Protocol: A clinical program was carried out to test the safety, tolerability, and activity of ecopipam in adult patients with Tourette's Syndrome. A multicenter, open-label, nonrandomized study in 25 to 30 subjects was conducted to assess the activity and safety of ecopipam in subjects with TS. […] Assessment was performed at each visit. A follow-up visit was conducted via telephone at Week 10 to record any adverse events. Ecopipam was administered daily before bedtime at 50 mg/day for Week 1 and Week 2 and at 100 mg/day for Weeks 3-8. This treatment regimen is within the scope of the present invention; the compositions and various formulations described herein can be administered as described in this Example. The demographics of the study population were as follows: eighty three percent of the subjects were male (15 out of 18); fifteen were Caucasian, two were African-American, and one was an Asian/Pacific Islander. All subjects reported at least one adverse event (AE). […] These side effects are similar to those seen in other studies with ecopipam and were not unexpected.

dopamine D1 receptors = dopamine D1 receptors (Homo sapiens, UniProt P21728); details: radiolabeled ecopipam, healthy volunteers; cited from earlier work
Chain of dopamine D1 receptors (P21728 whole entry): as above

hD1/hD5 receptors = assay: Binding to cloned human receptors
Protocol: as §1

D1 receptor = target: T1, D1 receptor (Rattus norvegicus, UniProt P18901); details: rats, selective D1-agonist discriminative stimulus; cited from earlier work
T1 construct: In vivo studies on dopamine-agonist-induced behaviors; from tissue; host or cells: living rats (in vivo)
T1 sequence (P18901 whole entry): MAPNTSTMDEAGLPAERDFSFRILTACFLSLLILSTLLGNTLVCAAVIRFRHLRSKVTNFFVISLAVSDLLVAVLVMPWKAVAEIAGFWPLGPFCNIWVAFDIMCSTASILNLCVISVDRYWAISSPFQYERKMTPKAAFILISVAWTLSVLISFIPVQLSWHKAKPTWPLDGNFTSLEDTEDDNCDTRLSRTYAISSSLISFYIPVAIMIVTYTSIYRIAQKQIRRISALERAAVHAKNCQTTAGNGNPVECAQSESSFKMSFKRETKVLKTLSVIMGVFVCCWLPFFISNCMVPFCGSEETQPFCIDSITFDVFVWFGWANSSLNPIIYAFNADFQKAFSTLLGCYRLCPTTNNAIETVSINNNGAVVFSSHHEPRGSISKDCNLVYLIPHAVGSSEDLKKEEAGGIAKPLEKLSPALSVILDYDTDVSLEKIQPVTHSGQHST

[3] = known D2 antagonists, literature reports

COC(=O)C(c1ccccc1)C1CCCCN1 (stereo not shown) [methylphenidate]
reported effect on stuttering (stuttering; D2-preferring dopamine agonist, literature report): relieve stuttering

CN1CCc2cc(Cl)c(O)cc2[C@H]2c3ccccc3CC[C@@H]21 [Q=CH2, n=1, 7b(R): 7a(S)(−), X=Cl, Y=OH, 6,7,7a,8,9,13b-hexahydro-3-chloro-2-hydroxy-7-methyl-5H-benzo[d]naphtho[2,1-b]azepine]
CAR (MED) ([1]; po): 30 (po)

CN1CCc2cc(Cl)c(O)cc2[C@H]2c3ccccc3CC[C@@H]21 [ecopipam, (−)-trans-6,7,7a,8,9,13b-hexahydro-3-chloro-2-hydroxy-N-methyl-5H-benzo [d]-naphtho-[2,1-b]azepine]
affinity for D1/D5 receptors (D1/D5 receptors): high affinity | action on cAMP second messenger (D1 receptors): antagonist | patients reporting AEs rated as severe ([2]; 18 subjects): Four | subjects reporting at least one adverse event ([2]; 18 subjects): All subjects | AEs rated as severe (kinds) [2]: sedation, insomnia, decreased appetite, hypersensitivity, cold sweat, and feeling jittery | AEs rated mild to moderate reported in more than three subjects [2]: fatigue, insomnia, nausea, sedation, headache, restlessness, anxiety, muscle twitching, dysphoria, and sleeplessness | changes in lab tests [2]: none were of clinical significance | changes in vital signs [2]: no clinically significant changes in vital signs | serious adverse events [2]: no serious adverse events | binding in human brain (PET) (dopamine D1 receptors): specific binding in the human brain | affinity for hD1/hD5 receptors (hD1/hD5 receptors): high affinity | action on dopamine-agonist-induced behaviors (D1 receptor): selective D1 antagonist

COc1cc2c(cc1O)C1c3ccccc3CCCC1N(C)CC2 (stereo not drawn) [Q=CH2, n=2, trans, X=CH3O, Y=OH, 2-hydroxy-3-methoxy-7-methyl-5,6,7,7a,8,9,10,14b-octahydro-benzo[d]benzo[3,4]cyclo-hepta[1,2-b]azepine]
CAR (MED) ([1]; sc): 10 (sc)

CN1CCc2cc(Cl)c(O)cc2[C@@H]2c3ccccc3CC[C@H]21 [Q=CH2, n=1, 7b(S):7a(R)(+), X=Cl, Y=OH, 6,7,7a,8,9,13b-hexahydro-3-chloro-2-hydroxy-7-methyl-5H-benzo[d]naphtho[2,1-b]azepine]
CAR (MED) ([1]; po): >30 (po)

COc1cc2c(cc1O)C1c3ccccc3CCC1N(C)CC2 (stereo not drawn) [Q=CH2, n=1, trans, X=CH3O, Y=OH, 6,7,7a,8,9,13b-hexahydro-2-hydroxy-3-methoxy-7-methyl-5H-benzo[d]naphtho[2,1-b]azepine]
CAR (MED) ([1]; po): 30 | CAR (MED) ([1]; sc): 0.3-1

Cc1cc2c(s1)Nc1ccccc1N=C2N1CCN(C)CC1 [olanzapine]
reported effect on stuttering (stuttering; [3]): induce stuttering

CN1CC2c3ccccc3Oc3ccc(Cl)cc3C2C1 (stereo not shown) [asenapine]
reported effect on stuttering (stuttering; [3]): induce stuttering

COc1cc2c(cc1O)CCN(C)C1CCCc3ccccc3C21 (stereo not drawn) [Q=CH2, n=2, trans, X=HO, Y=CH3O, 3-hydroxy-2-methoxy-7-methyl-5,6,7,7a,8,9,10,14b-octahydro-benzo[d]benzo[3,4]cyclo-hepta[1,2-b]azepine]
CAR (MED) ([1]; sc): 10 (sc)

CN1CCc2cc(Cl)c(O)cc2C2c3ccccc3CCC21 (stereo not drawn) [Q=CH2, n=1, trans, X=Cl, Y=OH, 6,7,7a,8,9,13b-hexahydro-3-chloro-2-hydroxy-7-methyl-5H-benzo[d]naphtho[2,1-b]azepine]
CAR (MED) ([1]; po): 30 | CAR (MED) ([1]; sc): 0.3

Cc1nc2n(c(=O)c1CCN1CCC(c3noc4cc(F)ccc34)CC1)CCCC2 [risperidone]
reported effect on stuttering (stuttering; [3]): induce stuttering

CN1CCc2cc(Cl)c(N)cc2C2c3ccccc3CCC21 (stereo not drawn) [Q=CH2, n=1, trans, X=Cl, Y=NH2, 6,7,7a,8,9,13b-hexahydro-2-amino-3-chloro-7-methyl-5H-benzo[d]naphtho[2,1-b]azepine]
CAR (MED) ([1]; po): 3 (po)
